According to US20090098589A1 (priority 2006, published 2009):

Tests used:
Type in all cases: biochemical
Potato acid phosphatase = assay: Phosphate release from substrate by enzyme, microtitre plate, molybdate detection; conditions: 10 mM substrate, pH 5.5, 1 h, 37° C.
Procedure: (§1) Enzymatic assays were carried out in microtitre plates in 100 μl of reaction mixture. The reaction mixture for acid phytases and phosphatases included: 10 mM of substrate in 200 mM sodium acetate buffer, pH 5.5 containing 0.8 mM CaCl2. For alkaline phytases and phosphatases the same conditions were used except sodium acetate buffer was replaced with 200 mM Tris*HCl buffer, pH 7.5. The reactions were allowed to proceed for 1 h at 37° C. after which time the released phosphate was measured by a modification of a known procedure (Heinonen J. K., Lahti R. J. Anal Biochem. 113 (2), 313-317 (1981)). Briefly, 200 pLI of a freshly prepared AMM solution ([…], 15 mM ammonium molybdate and acetone—1:1:2) was added to the 100 μl reaction mixture in each microtitre plate well. The absorbance at 390 nm was measured not earlier than 10 min and not later than 30 min after addition of the AMM reagent. The amount of phosphate was determined by building a calibration curve with phosphate solutions of known concentrations.
(§2) Both phytases and phosphatases catalyse the hydrolysis of phosphoesters. Thus, the difference between these two groups of enzymes is quantitative rather than qualitative and can be defined as the relative efficiency in hydrolysis of phytate and simple monophosphoesters such as e.g. glucose 6-phosphate or fructose 6-phosphate. Phosphatases tend to be relatively inefficient in hydrolysing phytate, and, conversely, most phytases hydrolyse mono-substituted sugar phosphates inefficiently. To test whether polyphosphorylated polyhydroxybenzenes can be used as mimics of phytate we have tested phosphate release from hexaphospho-benzenehexaol and fructose 6-phosphate by several different phytases and phosphatases. Phytases from Aspergillus niger (Natuphos^R), Escherichia coli (Phyzyme XP^R) and Peniophora lycii (Ronozyme^R) as well as potato acid phosphatase were assayed at pH 5.5 while alkaline bacterial phosphatase calf intestinal phosphatase and shrimp phosphatase were assayed at pH 7.5.

[1] = biological target: T1, E. coil phytase (Phyzyme XP^R) (Escherichia coli, UniProt P07102); assay: as above; conditions: 10 mM substrate, pH 5.5, 1 h, 37° C.
T1 construct: purchased
T1 sequence (P07102 23-432): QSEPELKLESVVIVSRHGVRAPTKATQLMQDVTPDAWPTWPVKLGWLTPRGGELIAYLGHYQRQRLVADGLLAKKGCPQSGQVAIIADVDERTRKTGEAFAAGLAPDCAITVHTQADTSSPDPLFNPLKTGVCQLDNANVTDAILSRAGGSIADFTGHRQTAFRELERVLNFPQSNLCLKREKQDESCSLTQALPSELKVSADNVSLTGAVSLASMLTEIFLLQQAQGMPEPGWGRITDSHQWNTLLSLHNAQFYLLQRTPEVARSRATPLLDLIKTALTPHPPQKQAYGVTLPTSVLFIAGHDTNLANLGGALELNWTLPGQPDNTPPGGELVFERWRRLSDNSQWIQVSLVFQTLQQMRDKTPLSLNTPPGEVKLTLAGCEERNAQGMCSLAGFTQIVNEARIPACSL
Procedure: as §1, §2

[2] = biological target: Bacterial alkaline phosphatase (Escherichia coli, UniProt P00634); assay: as above; conditions: 10 mM substrate, pH 7.5, 1 h, 37° C.
Chain of Bacterial alkaline phosphatase (P00634 22-471): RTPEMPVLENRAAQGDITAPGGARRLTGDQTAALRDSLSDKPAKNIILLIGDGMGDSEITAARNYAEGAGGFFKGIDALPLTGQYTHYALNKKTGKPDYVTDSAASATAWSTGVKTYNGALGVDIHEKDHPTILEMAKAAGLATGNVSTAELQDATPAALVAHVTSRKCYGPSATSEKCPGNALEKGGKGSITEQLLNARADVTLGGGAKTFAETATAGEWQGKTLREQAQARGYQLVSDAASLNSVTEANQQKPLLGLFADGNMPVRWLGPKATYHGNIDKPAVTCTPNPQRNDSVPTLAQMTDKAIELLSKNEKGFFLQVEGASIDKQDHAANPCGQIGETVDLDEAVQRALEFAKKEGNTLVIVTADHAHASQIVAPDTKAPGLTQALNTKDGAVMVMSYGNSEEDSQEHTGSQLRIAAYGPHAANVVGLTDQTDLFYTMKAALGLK
Procedure: as §1, §2

[3] = test system: Peniophora lycii phytase (Ronozyme^R); assay: as above; conditions: 10 mM substrate, pH 5.5, 1 h, 37° C.
Procedure: as §1, §2

Shrimp phosphatase = assay: as above; conditions: 10 mM substrate, pH 7.5, 1 h, 37° C.
Procedure: as §1, §2

[4] = biological target: T2, A. niger phytase (Natuphos^R) (Aspergillus niger, UniProt P34752); assay: as above; conditions: 10 mM substrate, pH 5.5, 1 h, 37° C.
T2 construct: purchased
T2 sequence (P34752 24-467): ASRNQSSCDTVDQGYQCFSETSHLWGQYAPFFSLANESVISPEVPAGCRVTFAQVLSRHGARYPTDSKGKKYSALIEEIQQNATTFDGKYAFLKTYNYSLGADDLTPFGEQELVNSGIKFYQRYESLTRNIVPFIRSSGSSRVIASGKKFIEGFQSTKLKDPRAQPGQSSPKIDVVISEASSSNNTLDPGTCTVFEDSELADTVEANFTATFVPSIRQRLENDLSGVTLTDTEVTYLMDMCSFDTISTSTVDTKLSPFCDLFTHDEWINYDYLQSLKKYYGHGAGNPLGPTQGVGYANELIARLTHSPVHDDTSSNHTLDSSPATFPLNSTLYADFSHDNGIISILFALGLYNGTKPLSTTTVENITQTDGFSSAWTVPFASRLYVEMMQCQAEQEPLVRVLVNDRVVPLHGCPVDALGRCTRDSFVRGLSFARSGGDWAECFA
Procedure: as §1, §2

[5] = test system: Calf intestine phosphatase; assay: as above; conditions: 10 mM substrate, pH 7.5, 1 h, 37° C.
Procedure: as §1, §2

all tested phytases = assay: Phosphate release from substrate, summary for all tested phytases; conditions: compared with fructose 6-phosphate
Procedure: as §1
(§3) Both phytases and phosphatases catalyse the hydrolysis of phosphoesters. Thus, the difference between these two groups of enzymes is quantitative rather than qualitative and can be defined as the relative efficiency in hydrolysis of phytate and simple monophosphoesters such as e.g. glucose 6-phosphate or fructose 6-phosphate. […]

typical phosphatases = assay: Phosphate release from substrate, summary for typical phosphatases; conditions: all tested typical phosphatases, compared with fructose 6-phosphate
Procedure: as §1, §3

SMILES	Ratio of phosphate-releasing activities with the substrate and fructose 6-P (Potato acid phosphatase)	Ratio of phosphate-releasing activities with the substrate and fructose 6-P [1]	Ratio of phosphate-releasing activities with the substrate and fructose 6-P [2]	Ratio of phosphate-releasing activities with the substrate and fructose 6-P [3]	Ratio of phosphate-releasing activities with the substrate and fructose 6-P (Shrimp phosphatase)	Ratio of phosphate-releasing activities with the substrate and fructose 6-P [4]	Ratio of phosphate-releasing activities with the substrate and fructose 6-P [5]	Quality as substrate for all tested phytases (in words) (all tested phytases)	Quality as substrate for typical phosphatases (in words) (typical phosphatases)
O=P(O)(O)Oc1c(OP(=O)(O)O)c(OP(=O)(O)O)c(OP(=O)(O)O)c(OP(=O)(O)O)c1OP(=O)(O)O [benzenehexaol hexaphosphate, Benzenehexaol hexaphosphate]	0.23	122	0.01	2.7	0.1	250	0.01	much better substrate than fructose 6-phosphate	the opposite is true
O=P(O)(O)Oc1cc(OP(=O)(O)O)cc(OP(=O)(O)O)c1	3.9	500	1.0	250	3.8	280	1.0	good substrate	good substrate
